Measurements: patent US8927521B2, “Cyclic adenosine monophosphates for reducing the formation of adhesions” (University of Pittsburgh—of the Commonwealth System of …, priority 2008, dated 2015)
Several values for one entry are separate records, joined by “and”; a condition that tells them apart may be missing. Identical values can stand only once.

Columns and labels:
[1] = test system: P1 adenosine receptor subtypes (A1, A2A, A2B and A3); settings: at 1 mM; cited from earlier work
[2] = test system: post-surgical adhesion formation; assay: Post-surgical adhesion formation in mice, all groups co-treated with 1,3-dipropyl-8-(p-sulfophenyl)xanthine (Example 2); type: in vivo; settings: for adhesion score (mean±standard error of mean): scale 1 to 5; for adhesion scores (individual animals): one value per mouse
Description: (§1) This protocol examined the effects of several treatments on post-surgical adhesion formation. Six-week-old C57Bl mice were fasted overnight and then anesthetized the following day with an intraperitoneal injection of pentobarbital (50 mg/kg). The surgical procedures were conducted under aseptic conditions. The abdomen was shaved to remove hair, and the incision site was cleaned with betadine solution. Surgery was performed under a laminar flow hood using instruments sterilized in a glass bead sterilizer. The abdomen was opened via a midline incision of approximately 10 mm. The cecum was exposed and placed on sterile gauze. […] After 30 seconds, the ethanol was washed from the cecum surface with 1-ml of test solution. Next, the cecum was returned to the peritoneal cavity and placed in its natural position. Then 1-ml of test solution was placed in the peritoneal cavity, and the abdominal incision was repaired by suturing. […] The animals were placed under a warming lamp and observed until they regained consciousness. After regaining consciousness, the mice were placed back in the housing cage.
Ten days later, the animals were again anesthetized with pentobarbital, and the abdomen was surgically opened to provide a clear view of the intestines. The severity of adhesion formation was assessed on a semi-quantitative scale from 1 to 5, taking into account the extent of adhesion formation (with 1 being the least amount of adhesion formation and 5 being the most amount of adhesion formation). Adhesions were identified visually and by noting the difficulty of separating adjacent surfaces. Adhesion scores were assigned by an individual blinded to (that is unaware of) the test solutions used to treat the animals. The scoring was based on the extent of adhesion of the cecum to itself and to adjacent tissues or organs. A score of 1 was assigned to animals when there was only minimal (approximately >10 to <20%) adhesion of the cecum to itself (that is within the cecum core) with no adhesion of the cecum to other adjacent structures (abdominal wall, liver or intestines). A score of 2 was assigned when there was mild (approximately >20 to <30%) adhesion of the cecum to itself or when there was minimal (approximately >10 to <20%) adhesion of the cecum to itself but in addition minimal adhesion of the cecum to adjacent structures. A score of 3 was assigned to animals when the adhesion of the cecum to itself was moderate (approximately >30 to <50%), in the absence or presence of minimal adhesion of the cecum to adjacent structures. A score of 4 was assigned to animals when the adhesion of the cecum to itself was severe (approximately >60 to <80%) or when there was moderate adhesion to adjacent structures or both. A score of 5 was assigned to animals when adhesion of the cecum to itself was so extensive that it existed as one entity (complete adhesion within itself) or when there was severe adhesion of the cecum to itself but in addition severe adhesion of the cecum to adjacent structures.

[3] = test system: post-surgical adhesion formation; assay: Post-surgical abdominal adhesion formation after cecum injury in mice (Example 1); type: in vivo, C57Bl mice; settings: for adhesion score compared with saline control group or other treatments (Fisher's Least Significant Difference test): post-hoc analysis, Example 1; for adhesion score (mean±standard error of mean): 1 ml wash + 1 ml in peritoneal cavity, scored ten days later; for adhesion scores for all mice (individual animals): one value per mouse
Description: as §1, with “cage. Ten days later, the animals were again anesthetized with pentobarbital, and the abdomen was surgically opened to provide a clear view of the intestines. […] Adhesions were identified visually and by noting the difficulty of separating adjacent surfaces. Adhesion scores were assigned by an individual blinded to (that is unaware of) the test solutions used to treat the animals. The scoring was based on the extent of adhesion of the cecum to itself and to adjacent tissues or organs. […] In this example, there were six groups that were treated with test solutions containing chemical agents of interest. In addition, there was a seventh group (the control group) in which the test solution was only the vehicle in which the chemical agents of interest were dissolved. The vehicle for all six test solutions was 0.9% saline, so the seventh group (control group) received only 0.9% saline as the test solution.” for “cage.”

[4] = Excerpt: However, there are serious limitations with regard to using adenosine for this purpose that preclude an optimal anti-adhesive efficacy. […] Dis Colon Rectum. […] Consequently the time-concentration profile of adenosine in the surgical field cannot be optimized.
[5] = scale 1 to 5, 75 millimoles/L in 0.9% saline

SMILES	efficacy in inhibiting formation of post-surgical abdominal adhesions (in words) ([3]; 75 millimoles/L)	adhesion score compared with saline control group or other treatments (Fisher's Least Significant Difference test) [3]	adhesion score (mean±standard error of mean) [3, 5]	concentration of stable aqueous solutions (aqueous solubility) [4] [millimoles/L]	further results
CCCn1c(=O)c2[nH]c(-c3ccc(S(=O)(=O)O)cc3)nc2n(CCC)c1=O [1,3-dipropyl-8-(p-sulfophenyl)xanthine]	–	–	–	–	blockade of adenosine receptor subtypes [1]: blocks all four P1 adenosine receptor subtypes; adhesion score (mean±standard error of mean) ([2]; 1,3-dipropyl-8-(p-sulfophenyl)xanthine 1 mM + saline only (group headed Saline)): 4.75±0.22; adhesion scores (individual animals) ([2]; 1,3-dipropyl-8-(p-sulfophenyl)xanthine 1 mM + saline only): 5 (3×) and 4
Nc1ncnc2c1ncn2[C@@H]1O[C@H](CO)[C@@H](O)[C@H]1OP(=O)(O)O [2′-adenosine monophosphate]	nearly inactive	only slightly less than	4.08±0.15	–	adhesion scores for all mice (individual animals) ([3]; scale 1 to 5, 75 millimoles/L, listed as 2′-AMP): 4 (9×) and 3 and 5 (2×)
Nc1ncnc2c1ncn2[C@@H]1O[C@H](CO)[C@@H](OP(=O)(O)O)[C@H]1O [3′-adenosine monophosphate]	nearly inactive	only slightly less than	4.00±0.17	–	adhesion scores for all mice (individual animals) ([3]; scale 1 to 5, 75 millimoles/L, listed as 3′-AMP): 4 (8×) and 3 (2×) and 5 (2×)
Nc1ncnc2c1ncn2[C@@H]1O[C@H](COP(=O)(O)O)[C@@H](O)[C@H]1O [5′-adenosine monophosphate]	nearly inactive	only slightly less than	3.82±0.18	> 75	adhesion scores for all mice (individual animals) ([3]; scale 1 to 5, 75 millimoles/L, listed as 5′-AMP): 4 (7×) and 3 (3×) and 5
Nc1ncnc2c1ncn2[C@@H]1O[C@H](CO)[C@@H](O)[C@H]1O [Adenosine]	–	–	–	≤ 23	adhesion scores (individual animals) ([2]; 23 mM + 1,3-dipropyl-8-(p-sulfophenyl)xanthine 1 mM): 4 (3×) and 5; adhesion score (mean±standard error of mean) ([2]; 23 millimoles/L + 1,3-dipropyl-8-(p-sulfophenyl)xanthine 1 mM): 4.25±0.22; adhesion score compared with the saline group (Fisher's Least Significant Difference test) ([2]; in presence of 1,3-dipropyl-8-(p-sulfophenyl)xanthine 1 mM): did not significantly reduce; adhesion score (mean±standard error of mean) ([3]; scale 1 (least) to 5 (most), 23 millimoles/L in 0.9% saline): 3.08±0.15; adhesion scores for all mice (individual animals) ([3]; scale 1 to 5, 23 millimoles/L): 3 (9×) and 4 (2×) and 2
